#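 Method: 48-hour compound exposure of cells in 96-well plates, five concentrations, linear interpolation of endpoints. Abbreviation: GI50, concentration required for 50% inhibition of growth.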 Calls of active or inactive are those of the source. Rule as the data show it: active = GI50 up to about 1.1 µM and inactive = higher.
# Columns and labels:
# Assay in all cases: inhibition of tumour cell growth, NCI panel, 48 h
# A498 = test system: A498
# RPMI-8226 = test system: RPMI-8226
# TK-10 = test system: TK-10
# SW-620 = test system: SW-620
# KM12 = test system: KM12
# HOP-92 = test system: HOP-92
# SF-268 = test system: SF-268
# HCT-116 = test system: HCT-116
# K562 = test system: K562
# UO-31 = test system: UO-31
# RXF 393 = test system: RXF 393
# DU-145 = test system: DU-145
# NCI-H460 = test system: NCI-H460
# OVCAR-3 = test system: OVCAR-3
# M14 = test system: M14
# T47D = test system: T47D
# OVCAR-8 = test system: OVCAR-8
# NCI-H23 = test system: NCI-H23
# EKVX = test system: EKVX
# SR = test system: SR
Structure (SMILES),GI50 (A498),GI50 (RPMI-8226),GI50 (TK-10),GI50 (SW-620),GI50 (KM12),GI50 (HOP-92),GI50 (SF-268),GI50 (HCT-116),GI50 (K562),GI50 (UO-31),GI50 (RXF 393),GI50 (DU-145),GI50 (NCI-H460),GI50 (OVCAR-3),GI50 (M14),GI50 (T47D),GI50 (OVCAR-8),GI50 (NCI-H23),GI50 (EKVX),GI50 (SR)
CN1N=C(c2ccncc2)OC1c1ccccc1F (stereo not drawn),> 100 µM (inactive),> 100 µM (inactive),> 100 µM (inactive),> 100 µM (inactive),> 100 µM (inactive),> 100 µM (inactive),> 100 µM (inactive),> 100 µM (inactive),> 100 µM (inactive),> 100 µM (inactive),> 100 µM (inactive),> 100 µM (inactive),> 100 µM (inactive),> 100 µM (inactive),> 100 µM (inactive),51.8 µM (inactive),> 100 µM (inactive),> 100 µM (inactive),> 100 µM (inactive),
COC([C@@H](OC(=O)c1ccccc1)[C@H](OC(=O)c1ccccc1)C(O)COC(=O)c1ccccc1)n1cc(C)c(=O)[nH]c1=O (stereo partly drawn),,> 100 µM (inactive),33.8 µM (inactive),21.3 µM (inactive),,,29.7 µM (inactive),23.6 µM (inactive),13.7 µM (inactive),25.5 µM (inactive),14 µM (inactive),44.5 µM (inactive),27.3 µM (inactive),20.3 µM (inactive),22.8 µM (inactive),11.6 µM (inactive),39.1 µM (inactive),29.4 µM (inactive),26.1 µM (inactive),29.7 µM (inactive)
COC1=N[C@H](C(C)C)C(OC)=N[C@H]1Cc1ccc(C[C@@H]2N=C(OC)[C@@H](C(C)C)N=C2OC)s1,,,> 100 µM (inactive),39.9 µM (inactive),38.6 µM (inactive),> 100 µM (inactive),67.8 µM (inactive),31 µM (inactive),32.4 µM (inactive),45.4 µM (inactive),,33.2 µM (inactive),58.3 µM (inactive),58.9 µM (inactive),36 µM (inactive),13.5 µM (inactive),76.9 µM (inactive),25.1 µM (inactive),24.8 µM (inactive),19.5 µM (inactive)
CC[N+]1(C)CCC(O)(/C=C/c2ccc(Cl)cc2)C(C(=O)/C=C/c2ccc(Cl)cc2)C1 (stereo not drawn),16.4 µM (inactive),0.327 µM (active),3.51 µM (inactive),2.56 µM (inactive),2.9 µM (inactive),3.23 µM (inactive),4.55 µM (inactive),3.48 µM (inactive),2.37 µM (inactive),6.58 µM (inactive),7.66 µM (inactive),12.1 µM (inactive),4.48 µM (inactive),11.5 µM (inactive),> 19.9 µM (inactive),4.86 µM (inactive),4.59 µM (inactive),9.89 µM (inactive),18.8 µM (inactive),
CN(C)C1(N(C)C)Oc2c(c(=O)n(C)c(=O)n2C)C(c2ccc(C(F)(F)F)cc2)C1(F)F (stereo not drawn),> 100 µM (inactive),> 100 µM (inactive),> 100 µM (inactive),> 100 µM (inactive),> 100 µM (inactive),> 100 µM (inactive),> 100 µM (inactive),> 100 µM (inactive),> 100 µM (inactive),> 100 µM (inactive),> 100 µM (inactive),> 100 µM (inactive),> 100 µM (inactive),> 100 µM (inactive),> 100 µM (inactive),> 100 µM (inactive),,> 100 µM (inactive),> 100 µM (inactive),
CC1=C(C)SC(=C2Sc3c(n(C)c(=O)n(C)c3=O)S2)S1,27.4 µM (inactive),> 100 µM (inactive),27.9 µM (inactive),> 100 µM (inactive),> 100 µM (inactive),53.7 µM (inactive),43.8 µM (inactive),10.7 µM (inactive),62.7 µM (inactive),59 µM (inactive),48.4 µM (inactive),> 100 µM (inactive),30.5 µM (inactive),71.3 µM (inactive),> 100 µM (inactive),> 100 µM (inactive),23.6 µM (inactive),34.4 µM (inactive),> 100 µM (inactive),
Oc1ccc(-c2nc(-c3cccnc3)c(-c3ccc(Cl)cc3)[nH]2)cc1O,,> 100 µM (inactive),10.4 µM (inactive),12.4 µM (inactive),8.97 µM (inactive),,11.5 µM (inactive),11.7 µM (inactive),> 100 µM (inactive),12.8 µM (inactive),12.7 µM (inactive),22 µM (inactive),,3.43 µM (inactive),13.6 µM (inactive),11.4 µM (inactive),11.9 µM (inactive),11.7 µM (inactive),18 µM (inactive),> 100 µM (inactive)
CC1CC[C@@]2(OC1)O[C@H]1[C@H](O)[C@H]3[C@@H]4CC[C@H]5C[C@@H](OC6OC(CO)C(OC7OC(CO)C(O)C(OC8OCC(O)C(O)C8O)C7OC7OC(CO)C(O)C(O)C7OC7OC(CO)C(O)C(O)C7O)C(O)C6O)[C@H](O)C[C@]5(C)[C@H]4CC[C@]3(C)[C@H]1[C@@H]2C (stereo partly drawn),> 10 µM (inactive),2.15 µM (inactive),> 10 µM (inactive),> 10 µM (inactive),4.29 µM (inactive),> 10 µM (inactive),> 10 µM (inactive),4.59 µM (inactive),1.77 µM (inactive),4.18 µM (inactive),> 10 µM (inactive),> 10 µM (inactive),> 10 µM (inactive),2.85 µM (inactive),> 10 µM (inactive),> 10 µM (inactive),> 10 µM (inactive),5.24 µM (inactive),> 10 µM (inactive),
O=C1/C(=C/c2ccccc2S)N=C(c2ccccc2)N1c1nc2ccc(Sc3ccccc3)cc2[nH]1,26.2 µM (inactive),23.9 µM (inactive),27 µM (inactive),29.9 µM (inactive),27.6 µM (inactive),81.3 µM (inactive),38.3 µM (inactive),33.4 µM (inactive),24.1 µM (inactive),36.3 µM (inactive),28.2 µM (inactive),34.9 µM (inactive),21.9 µM (inactive),21.6 µM (inactive),20.4 µM (inactive),28.8 µM (inactive),34.5 µM (inactive),37 µM (inactive),46.6 µM (inactive),
COc1cc(/C=C2/C(=O)N(C(=O)c3ccccc3O)N=C2C)cc(OC)c1OC,0.473 µM (active),> 22.2 µM (inactive),9.79 µM (inactive),6.22 µM (inactive),0.455 µM (active),1.07 µM (active),8.59 µM (inactive),0.358 µM (active),0.393 µM (active),0.558 µM (active),0.192 µM (active),2.44 µM (inactive),1.43 µM (inactive),1.53 µM (inactive),7.38 µM (inactive),1.12 µM (active),1.67 µM (inactive),0.653 µM (active),5.5 µM (inactive),

# From ChEMBL document CHEMBL1201862, “PubChem BioAssay data set” (2004)
